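Five compound concentrations were applied to cells in 96-well plates for 48 hours; endpoints were derived by simple linear interpolation of the resulting dose-response curve. TGI is the concentration that stops growth completely.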
tested on: NCI-H460 lung; test: inhibition of tumour cell growth, NCI panel, 48 h

Compound	TGI
COc1ccc(CN2C(=O)C(=O)N(C)C2=O)c2ccccc12	> 10 µM
OCC1OC(O[C@H]2CN3[C@H](O)[C@@H](O)[C@H](O)[C@H]3C2O)C(O)C(O)C1O (stereo partly drawn)	> 100 µM
O=S1(=O)c2ccccc2NC(=S)N1c1ccccc1	> 100 µM
COC(=O)C(CCSC)NC(=O)CSc1nnc(COc2ccc(Cl)cc2)n1-c1ccccc1 (stereo not drawn)	29.8 µM
COc1cc(/C=C/c2cc(=O)cc(/C=C/c3ccc(O)c(OC)c3)o2)ccc1O	> 100 µM
COn1cc(CO)c2ccccc21	> 100 µM
NNC(=O)c1cccc2c1Oc1ccccc1S2	> 100 µM
O=C(/C=C1\C[C@H]2C=Nc3ccccc3C(=O)N2C1)NCCCCCNC(=O)/C=C1\C[C@H]2C=Nc3ccccc3C(=O)N2C1	36.6 µM
COc1cc2c(cc1O)CC[n+]1cc3c(OC)c(OC)ccc3cc1-2	> 100 µM
NC(=S)N=Nc1c(O)cc(Nc2ccc(Cl)cc2Cl)c2ccccc12	> 100 µM
CC[P+](C#Cc1ccccc1)(c1ccccc1)c1ccccc1	11.2 µM
Cc1ccc(C(=O)c2[nH]c(Nc3cc(C)ccn3)c(C(=S)Nc3ccccc3)c2N)cc1	> 100 µM
Clc1cccc(C2ON=C(c3ccccc3)N2C23CC4CC(CC(C4)C2)C3)c1Cl (stereo not drawn)	> 10 µM
CNc1ccc2c(c1)Cc1ccccc1-2	> 100 µM
CCN(CC(=O)O)CC(=O)O	> 100 µM
Cc1cc(C)nc(NS(=O)(=O)c2ccc(Nc3c4ccccc4nc4c(C(=O)NCCO)cccc34)cc2)n1	> 100 µM
O=C1NN=C(c2c[nH]c3ccccc23)CC1NCc1ccccc1 (stereo not drawn)	> 100 µM
O=C(NCCCNCCCCNCCCNC(=O)C(F)(F)F)C(F)(F)F	> 100 µM
O=C(O)c1cc2ccccc2c(S(=O)(=O)O)c1O	> 100 µM
COC(=O)c1sc2ncc3c(c2c1N)CC(C)CC3 (stereo not drawn)	> 100 µM
CCOC(=O)c1[nH]c2nc(SC)nc(NC)c2c1N	> 100 µM
Cc1cccc(NC(Nc2cccc(C)c2)=C(C(Cl)=C(Cl)Cl)[N+](=O)[O-])c1	> 62.5 µM
CC1=CCC[C@H]2[C@](C)(CC3=CC(=O)C4SCCSC4C3=O)[C@@H](C)CC[C@]12C (stereo partly drawn)	65 µM
COC(=O)C1=C(C(=O)OC)C2(C)CCC(=O)C1O2 (stereo not drawn)	> 10 µM
Nc1n[nH]c2ccccc12	> 100 µM

tested on: KM12 colon; test: inhibition of tumour cell growth, NCI panel, 48 h

Compound	TGI
CC(O)(C(=O)N(O)c1ccc(Cl)cc1)c1ccc(Cl)cc1 (stereo not drawn)	> 100 µM
CC1(C)[C@@H]2C[C@H]1c1cnc(-c3ccccn3)cc1[C@H]2C(O)[C@@H]1c2cc(-c3ccccn3)ncc2[C@H]2C[C@@H]1C2(C)C (stereo partly drawn)	24.7 µM
COc1ccc(N2C(=O)C3c4[nH]c5ccccc5c4C4C(C)CCCC4C3C2=O)cc1 (stereo not drawn)	> 100 µM
Brc1ccc2c(c1)-c1nc3c(cc1CC2)CCc1ccc(Br)cc1-3	> 100 µM
OC(c1ccco1)C(F)(F)c1nc2ccccc2o1 (stereo not drawn)	> 100 µM
CCN(C(=O)N[C@H](C(=O)N[C@@H](C)C(=O)OC)C(C)C)c1ccccc1	> 100 µM
CCOC(=O)c1ccc(C(=O)/C(C(=O)OC(C)(C)C)=C2\CCCN2C)n1C	> 100 µM
Cc1cc2c(cc1Cl)SC(NNc1cnc3ccccc3n1)=NS2(=O)=O	> 100 µM
O=[N+]([O-])c1ccc2nc3c(nc2c1)-c1c2ccccc2cc2cccc-3c12	> 100 µM
COc1ccc(CN2C(=O)C(=O)N(C)C2=O)c2ccccc12	> 10 µM
OCC1OC(O[C@H]2CN3[C@H](O)[C@@H](O)[C@H](O)[C@H]3C2O)C(O)C(O)C1O (stereo partly drawn)	> 100 µM
O=S1(=O)c2ccccc2NC(=S)N1c1ccccc1	> 100 µM
COC(=O)C(CCSC)NC(=O)CSc1nnc(COc2ccc(Cl)cc2)n1-c1ccccc1 (stereo not drawn)	34.4 µM
COc1cc(/C=C/c2cc(=O)cc(/C=C/c3ccc(O)c(OC)c3)o2)ccc1O	> 100 µM
COn1cc(CO)c2ccccc21	> 100 µM
NNC(=O)c1cccc2c1Oc1ccccc1S2	> 100 µM
O=C(/C=C1\C[C@H]2C=Nc3ccccc3C(=O)N2C1)NCCCCCNC(=O)/C=C1\C[C@H]2C=Nc3ccccc3C(=O)N2C1	41 µM

Compound	TGI
COc1cc2c(cc1O)CC[n+]1cc3c(OC)c(OC)ccc3cc1-2	> 100 µM
NC(=S)N=Nc1c(O)cc(Nc2ccc(Cl)cc2Cl)c2ccccc12	> 100 µM
CC[P+](C#Cc1ccccc1)(c1ccccc1)c1ccccc1	3.29 µM
Cc1ccc(C(=O)c2[nH]c(Nc3cc(C)ccn3)c(C(=S)Nc3ccccc3)c2N)cc1	> 100 µM
Clc1cccc(C2ON=C(c3ccccc3)N2C23CC4CC(CC(C4)C2)C3)c1Cl (stereo not drawn)	> 10 µM
CNc1ccc2c(c1)Cc1ccccc1-2	99.5 µM
CCN(CC(=O)O)CC(=O)O	> 100 µM
Cc1cc(C)nc(NS(=O)(=O)c2ccc(Nc3c4ccccc4nc4c(C(=O)NCCO)cccc34)cc2)n1	22.9 µM
O=C1NN=C(c2c[nH]c3ccccc23)CC1NCc1ccccc1 (stereo not drawn)	> 100 µM
O=C(NCCCNCCCCNCCCNC(=O)C(F)(F)F)C(F)(F)F	> 100 µM
O=C(O)c1cc2ccccc2c(S(=O)(=O)O)c1O	> 100 µM
COC(=O)c1sc2ncc3c(c2c1N)CC(C)CC3 (stereo not drawn)	> 100 µM
CCOC(=O)c1[nH]c2nc(SC)nc(NC)c2c1N	> 100 µM
Cc1cccc(NC(Nc2cccc(C)c2)=C(C(Cl)=C(Cl)Cl)[N+](=O)[O-])c1	49.5 µM
CC1=CCC[C@H]2[C@](C)(CC3=CC(=O)C4SCCSC4C3=O)[C@@H](C)CC[C@]12C (stereo partly drawn)	> 100 µM
COC(=O)C1=C(C(=O)OC)C2(C)CCC(=O)C1O2 (stereo not drawn)	> 10 µM
Nc1n[nH]c2ccccc12	> 100 µM

tested on: T-47D breast; test: inhibition of tumour cell growth, NCI panel, 48 h

Compound	TGI
CC(O)(C(=O)N(O)c1ccc(Cl)cc1)c1ccc(Cl)cc1 (stereo not drawn)	> 100 µM
CC1(C)[C@@H]2C[C@H]1c1cnc(-c3ccccn3)cc1[C@H]2C(O)[C@@H]1c2cc(-c3ccccn3)ncc2[C@H]2C[C@@H]1C2(C)C (stereo partly drawn)	53.1 µM
COc1ccc(N2C(=O)C3c4[nH]c5ccccc5c4C4C(C)CCCC4C3C2=O)cc1 (stereo not drawn)	> 100 µM
Brc1ccc2c(c1)-c1nc3c(cc1CC2)CCc1ccc(Br)cc1-3	> 100 µM
OC(c1ccco1)C(F)(F)c1nc2ccccc2o1 (stereo not drawn)	> 100 µM
CCN(C(=O)N[C@H](C(=O)N[C@@H](C)C(=O)OC)C(C)C)c1ccccc1	> 100 µM
CCOC(=O)c1ccc(C(=O)/C(C(=O)OC(C)(C)C)=C2\CCCN2C)n1C	> 100 µM
Cc1cc2c(cc1Cl)SC(NNc1cnc3ccccc3n1)=NS2(=O)=O	> 100 µM
O=[N+]([O-])c1ccc2nc3c(nc2c1)-c1c2ccccc2cc2cccc-3c12	4.11 µM
COc1ccc(CN2C(=O)C(=O)N(C)C2=O)c2ccccc12	> 10 µM
OCC1OC(O[C@H]2CN3[C@H](O)[C@@H](O)[C@H](O)[C@H]3C2O)C(O)C(O)C1O (stereo partly drawn)	> 100 µM
O=S1(=O)c2ccccc2NC(=S)N1c1ccccc1	> 100 µM
COC(=O)C(CCSC)NC(=O)CSc1nnc(COc2ccc(Cl)cc2)n1-c1ccccc1 (stereo not drawn)	> 78.7 µM
COc1cc(/C=C/c2cc(=O)cc(/C=C/c3ccc(O)c(OC)c3)o2)ccc1O	> 93.3 µM
COn1cc(CO)c2ccccc21	> 100 µM
NNC(=O)c1cccc2c1Oc1ccccc1S2	> 100 µM
O=C(/C=C1\C[C@H]2C=Nc3ccccc3C(=O)N2C1)NCCCCCNC(=O)/C=C1\C[C@H]2C=Nc3ccccc3C(=O)N2C1	15.7 µM

Compound	TGI
COc1cc2c(cc1O)CC[n+]1cc3c(OC)c(OC)ccc3cc1-2	> 100 µM
NC(=S)N=Nc1c(O)cc(Nc2ccc(Cl)cc2Cl)c2ccccc12	93.6 µM
CC[P+](C#Cc1ccccc1)(c1ccccc1)c1ccccc1	6.88 µM
Cc1ccc(C(=O)c2[nH]c(Nc3cc(C)ccn3)c(C(=S)Nc3ccccc3)c2N)cc1	> 100 µM
Clc1cccc(C2ON=C(c3ccccc3)N2C23CC4CC(CC(C4)C2)C3)c1Cl (stereo not drawn)	> 10 µM
CNc1ccc2c(c1)Cc1ccccc1-2	> 100 µM
CCN(CC(=O)O)CC(=O)O	> 100 µM
Cc1cc(C)nc(NS(=O)(=O)c2ccc(Nc3c4ccccc4nc4c(C(=O)NCCO)cccc34)cc2)n1	> 100 µM
O=C1NN=C(c2c[nH]c3ccccc23)CC1NCc1ccccc1 (stereo not drawn)	> 100 µM
O=C(NCCCNCCCCNCCCNC(=O)C(F)(F)F)C(F)(F)F	> 100 µM
O=C(O)c1cc2ccccc2c(S(=O)(=O)O)c1O	> 100 µM
COC(=O)c1sc2ncc3c(c2c1N)CC(C)CC3 (stereo not drawn)	> 100 µM
CCOC(=O)c1[nH]c2nc(SC)nc(NC)c2c1N	> 100 µM
Cc1cccc(NC(Nc2cccc(C)c2)=C(C(Cl)=C(Cl)Cl)[N+](=O)[O-])c1	> 53 µM
CC1=CCC[C@H]2[C@](C)(CC3=CC(=O)C4SCCSC4C3=O)[C@@H](C)CC[C@]12C (stereo partly drawn)	> 100 µM
COC(=O)C1=C(C(=O)OC)C2(C)CCC(=O)C1O2 (stereo not drawn)	> 10 µM
Nc1n[nH]c2ccccc12	> 100 µM

Reference: PubChem BioAssay (NCI)
